The values below are quoted from earlier work in US20050032867A1, “Pharmaceutical composition comprising a 5ht1 receptor agonist” (priority 2001, published 2005).

As for `CNS(=O)(=O)Cc1ccc2[nH]cc(CCN(C)C)c2c1` [sumatriptan], the “effect of food on the overall bioavailability” value (administered orally) was “no significant effect”. The “delay of Tmax (time to maximum observed serum concentrations) by food” value (administered orally with food) is given as “about 0.5 hour”.
